This note sets out measurements from patent US10118930B2, “Piperidinylpyrazolopyrimidinones and their use” (BAYER PHARMA AKTIENGESELLSCHAFT, priority 2015, dated 2018).

Structures can show the parent of a compound that is named as a salt.

This test concerns clot lysis (fibrinolysis) in diluted human citrated plasma, tPA-induced. The test can be described thus: Plasma-based clot lysis assay (5%). The test is classed as biochemical. The settings on record: human citrated platelet-poor plasma 5%, fibrinogen 3 μM, CaCl2 10 mM, tPA 0.2 nM, 37° C., OD at 405 nm. In outline: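 Clot formation and breakdown triggered by CaCl2 (10 mM final) plus tPA (0.2 nM final) at 37° C, in 5% diluted human plasma supplemented with 3 μM fibrinogen (HEPES/NaCl/Brij buffer, pH 7). IC50 obtained from time courses relative to a blank control.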

For the compound `Cc1nn2c(C3CCNCC3)cc(=O)[nH]c2c1C(=O)OC(C)C` [Example 366, Propan-2-yl 2-methyl-5-oxo-7-(piperidin-4-yl)-4,5-dihydropyrazolo[1,5-a]pyrimidine-3-carboxylate hydrochloride], half-maximal inhibition (IC50) required 0.027 µM. This counts as double-digit nanomolar.

As for `Cc1nc(-c2ccc(C(F)(F)F)cc2)sc1-c1cnn2c(C3CCNCC3)cc(=O)[nH]c12` [Example 369, 3-{4-methyl-2-[4-(trifluoromethyl)phenyl]-1,3-thiazol-5-yl}-7-(piperidin-4-yl)pyrazolo[1,5-a]pyrimidin-5(4H)-one hydrochloride], the IC50 came out at 0.039 µM.

Compound `CC(=O)c1cnn2c(C3CCNCC3)cc(=O)[nH]c12` [Example 370, 3-acetyl-7-(piperidin-4-yl)pyrazolo[1,5-a]pyrimidin-5(4H)-one hydrochloride] yielded an IC50 of 0.036 µM.

With `CCC(=O)c1cnn2c(C3CCNCC3)cc(=O)[nH]c12` [Example 371, 7-(piperidin-4-yl)-3-propanoylpyrazolo[1,5-a]pyrimidin-5(4H)-one hydrochloride], half-maximal inhibition (IC50) was put at 0.03 µM. The IC50 values of the last two compounds are within 1.5-fold of each other.

In the case of `O=c1cc(C2CCNCC2)n2ncc(-c3coc(-c4ccccc4)n3)c2[nH]1` [Example 372, 3-(2-phenyl-1,3-oxazol-4-yl)-7-(piperidin-4-yl)pyrazolo[1,5-a]pyrimidin-5(4H)-one hydrochloride], the IC50 was 0.022 µM.

`N#Cc1c(Br)nn2c(C3CCNCC3)cc(=O)[nH]c12` [Example 374, 2-bromo-5-oxo-7-(piperidin-4-yl)-4,5-dihydropyrazolo[1,5-a]pyrimidine-3-carbonitrile hydrochloride] came in with an IC50 of 0.034 µM.

The compound `Cn1nccc1-c1cnn2c(C3CCNCC3)cc(=O)[nH]c12` [Example 375, 3-(1-methyl-1H-pyrazol-5-yl)-7-(piperidin-4-yl)pyrazolo[1,5-a]pyrimidin-5(4H)-one hydrochloride] showed an IC50 of 0.03 µM.

On to `CC(C)Cc1nc(-c2cnn3c(C4CCNCC4)cc(=O)[nH]c23)no1` [Example 378, 3-(5-Isobutyl-1,2,4-oxadiazol-3-yl)-7-(piperidin-4-yl)pyrazolo[1,5-a]pyrimidin-5(4H)-one hydrochloride], for which the IC50 was 0.032 µM.

In turn, `CCCCCCc1nc(-c2cnn3c(C4CCNCC4)cc(=O)[nH]c23)no1` [Example 379, 3-(5-Hexyl-1,2,4-oxadiazol-3-yl)-7-(piperidin-4-yl)pyrazolo[1,5-a]pyrimidin-5(4H)-one hydrochloride] returned an IC50 of 0.022 µM.

`CC(C)=Cc1nc(-c2cnn3c(C4CCNCC4)cc(=O)[nH]c23)no1` [Example 383, 3-[5-(2-Methylprop-1-en-1-yl)-1,2,4-oxadiazol-3-yl]-7-(piperidin-4-yl)pyrazolo[1,5-a]pyrimidin-5 (4H)-one hydrochloride] gave an IC50 of 0.015 µM.

With `O=c1cc(C2CCNCC2)n2ncc(-c3noc(C=C4CCCC4)n3)c2[nH]1` [Example 384, 3-[5-(Cyclopentylidenemethyl)-1,2,4-oxadiazol-3-yl]-7-(piperidin-4-yl)pyrazolo[1,5-a]pyrimidin-5 (4H)-one hydrochloride], 0.026 µM corresponded to half-maximal inhibition (IC50).

As for `O=c1cc(C2CCNCC2)n2ncc(-c3noc(C4CCCC4)n3)c2[nH]1` [Example 385, 3-(5-Cyclopentyl-1,2,4-oxadiazol-3-yl)-7-(piperidin-4-yl)pyrazolo[1,5-a]pyrimidin-5(4H)-one hydrochloride], the IC50 turned out to be 0.014 µM.

With `O=c1cc(C2CCNCC2)n2ncc(-c3noc(CC(F)(F)F)n3)c2[nH]1` [Example 388, 7-(Piperidin-4-yl)-3-[5-(2,2,2-trifluoroethyl)-1,2,4-oxadiazol-3-yl]pyrazolo[1,5-a]pyrimidin-5(4H)-one hydrochloride], it took 0.03 µM to reach half-maximal inhibition (IC50).

`O=c1cc(C2CCNCC2)n2ncc(-c3noc(C4CC(F)(F)C4)n3)c2[nH]1` [Example 392, 3-(5-(3,3-difluorocyclobutyl)-1,2,4-oxadiazol-3-yl)-7-(piperidin-4-yl)pyrazolo[1,5-a]pyrimidin-5(4H)-one hydrochloride] displayed an IC50 of 0.027 µM.

Regarding `O=c1cc(C2CCNCC2)n2ncc(-c3noc(C4CCC(F)(F)CC4)n3)c2[nH]1` [Example 393, 3-(5-(4,4-difluorocyclohexyl)-1,2,4-oxadiazol-3-yl)-7-(piperidin-4-yl)pyrazolo[1,5-a]pyrimidin-5(4H)-one hydrochloride], 0.03 µM corresponded to half-maximal inhibition (IC50).

Consider `COCc1nc(-c2cnn3c(C4CCNCC4)cc(=O)[nH]c23)no1` [Example 394, 3-(5-(methoxymethyl)-1,2,4-oxadiazol-3-yl)-7-(piperidin-4-yl)pyrazolo[1,5-a]pyrimidin-5(4H)-one hydrochloride], for which inhibition was half-maximal at 0.029 µM (IC50).

Compound `COCCCc1nc(-c2cnn3c(C4CCNCC4)cc(=O)[nH]c23)no1` [Example 395, 3-(5-(3-methoxypropyl)-1,2,4-oxadiazol-3-yl)-7-(piperidin-4-yl)pyrazolo[1,5-a]pyrimidin-5(4H)-one hydrochloride] registered an IC50 of 0.027 µM.

The compound `Cc1nn2c(C3CCNCC3)cc(=O)[nH]c2c1C(=O)N1CCSCC1` [Example 397, 2-methyl-7-(piperidin-4-yl)-3-(thiomorpholin-4-ylcarbonyl)pyrazolo [1,5-a]pyrimidin-5(4H)-one hydrochloride] returned an IC50 of 0.036 µM.

The compound `COC[C@@H]1CCCN1C(=O)c1c(C)nn2c(C3CCNCC3)cc(=O)[nH]c12` [Example 398, 3-{[(2S)-2-(methoxymethyl)pyrrolidin-1-yl]carbonyl}-2-methyl-7-(piperidin-4-yl) pyrazolo[1,5-a] pyrimidin-5(4H)-one hydrochloride] displayed an IC50 of 0.034 µM. This IC50 and that of the compound before are within 1.5-fold of each other.

Turning to `Cc1nn2c(C3CCNCC3)cc(=O)[nH]c2c1C(=O)N1CCCCC1` [Example 399, 2-methyl-7-(piperidin-4-yl)-3-(piperidin-1-ylcarbonyl) pyrazolo[1,5-a] pyrimidin-5(4H)-one hydrochloride], inhibition was half-maximal at 0.042 µM (IC50).

In turn, `CCN(C(=O)c1c(C)nn2c(C3CCNCC3)cc(=O)[nH]c12)C1CC1` [Example 400, N-cyclopropyl-N-ethyl-2-methyl-5-oxo-7-(piperidin-4-yl)-4,5-dihydro-pyrazolo[1,5-a] pyrimidine-3-carboxamide hydrochloride] returned an IC50 of 0.032 µM.

`Cc1nn2c(C3CCNCC3)cc(=O)[nH]c2c1C(=O)N(C)C1CCC1` [Example 401, N-cyclobutyl-N,2-dimethyl-5-oxo-7-(piperidin-4-yl)-4,5-dihydro-pyrazolo[1,5-a] pyrimidine-3-carboxamide hydrochloride] displayed an IC50 of 0.034 µM.

For the compound `COCC1CCCN(C(=O)c2c(C)nn3c(C4CCNCC4)cc(=O)[nH]c23)C1` (stereo not drawn) [Example 402, 3-{[3-(methoxymethyl)piperidin-1-yl]carbonyl}-2-methyl-7-(piperidin-4-yl) pyrazolo[1,5-a] pyrimidin-5(4H)-one hydrochloride], the IC50 worked out at 0.04 µM.

As to `Cc1nn2c(C3CCNCC3)cc(=O)[nH]c2c1C(=O)N1CCC2CCCCC2C1` (stereo not drawn) [Example 405, 2-methyl-3-(octahydro-isoquinolin-2(1H)-ylcarbonyl)-7-(piperidin-4-yl) pyrazolo[1,5-a] pyrimidin-5(4H)-one hydrochloride], the IC50 was 0.037 µM.

`CCCN(CC1CC1)C(=O)c1c(C)nn2c(C3CCNCC3)cc(=O)[nH]c12` [Example 406, N-(cyclopropyl-methyl)-2-methyl-5-oxo-7-(piperidin-4-yl)-N-propyl-4,5-dihydropyrazolo [1,5-a]pyrimidine-3-carboxamide hydrochloride]: the IC50 amounted to 0.037 µM.

For the compound `Cc1nn2c(C3CCNCC3)cc(=O)[nH]c2c1C(=O)N1CCCC(C(C)C)C1` (stereo not drawn) [Example 408, 3-[(3-isopropyl-piperidin-1-yl)carbonyl]-2-methyl-7-(piperidin-4-yl) pyrazolo[1,5-a] pyrimidin-5(4H)-one hydrochloride], the IC50 came out at 0.034 µM.

`Cc1nn2c(C3CCNCC3)cc(=O)[nH]c2c1C(=O)N1Cc2ccccc2C1` [Example 410, 3-(1,3-dihydro-2H-isoindol-2-ylcarbonyl)-2-methyl-7-(piperidin-4-yl) pyrazolo[1,5-a] pyrimidin-5(4H)-one hydrochloride] yielded an IC50 of 0.045 µM.

For the compound `Cc1nn2c(C3CCNCC3)cc(=O)[nH]c2c1C(=O)N1CCN2CCCC2C1` (stereo not drawn) [Example 411, 3-(hexahydro-pyrrolo[1,2-a]pyrazin-2(1H)-ylcarbonyl)-2-methyl-7-(piperidin-4-yl) pyrazolo[1,5-a] pyrimidin-5(4H)-one hydrochloride], the IC50 worked out at 0.54 µM.

For the compound `Cc1nn2c(C3CCNCC3)cc(=O)[nH]c2c1C(=O)N1CCc2ccccc21` [Example 412, 3-(2,3-dihydro-1H-indol-1-ylcarbonyl)-2-methyl-7-(piperidin-4-yl) pyrazolo[1,5-a] pyrimidin-5(4H)-one hydrochloride], the IC50 came out at 0.033 µM.

Compound `Cc1nn2c(C3CCNCC3)cc(=O)[nH]c2c1C(=O)N1CC2CCCCC2C1` (stereo not drawn) [Example 413, 2-methyl-3-(octahydro-2H-isoindol-2-ylcarbonyl)-7-(piperidin-4-yl) pyrazolo[1,5-a] pyrimidin-5(4H)-one hydrochloride] had an IC50 of 0.035 µM.

`Cc1nn2c(C3CCNCC3)cc(=O)[nH]c2c1C(=O)N1CCCC1` [Example 415, 2-methyl-7-(piperidin-4-yl)-3-(pyrrolidin-1-ylcarbonyl) pyrazolo[1,5-a] pyrimidin-5(4H)-one hydrochloride]: the midpoint of inhibition, the IC50, lay at 0.061 µM.

Turning to `Cc1nn2c(C3CCNCC3)cc(=O)[nH]c2c1C(=O)N1CCC(C)CC1` [Example 416, 2-methyl-3-[(4-methyl-piperidin-1-yl)carbonyl]-7-(piperidin-4-yl) pyrazolo[1,5-a] pyrimidin-5(4H)-one hydrochloride], the IC50 came to 0.031 µM.

`Cc1nn2c(C3CCNCC3)cc(=O)[nH]c2c1C(=O)NC1CCCC1` [Example 417, N-cyclopentyl-2-methyl-5-oxo-7-(piperidin-4-yl)-4,5-dihydro-pyrazolo[1,5-a] pyrimidine-3-carboxamide hydrochloride] displayed an IC50 of 0.024 µM.
